Assay results reported in US20120316210A1, “TOPICAL ANTIPARASITIC FORMULATIONS” (priority 2010, published 2012).
Like-named read-outs stand apart in the source and are kept apart here.

How the values were obtained:
[1] = type: physicochemical
Experimental: (§1) […] is also a weak base due to the presence of the imidazole ring. […] An acid modifier (or mixtures thereof) was added to the formulation in a molar equivalent relative to the amount of demiditraz to adjust the pH below 7.5 and reduce or eliminate the nucleophilic reaction between fipronil and demiditraz. The acid modifier includes both weak and strong acids. The weak acids include sugar acids (glyceric, gluconic, ascorbic, tartaric, and the like), carboxylic acid derivatives (mono-, di-, and tri-chloro acetic acid, and mono-, di-, and tri-fluoro acetic acid, benzoic, and the like) and mono-, di-, and tri-carboxylic acids. Non-exclusive examples of monocarboxylic acids include formic, acetic, propionic, butyric, oleic, valeric, caproic, enanthic, caprylic, linoleic, chloroacetic, dichloroacetic, oxalic, benzoic, pelargonic, capric, lauric, myristic, palmitic, stearic, and arachidic acid. Non-exclusive examples of di-carboxylic acids include oxalic, malonic, succinic, fumaric, aldaric, tartaric, glutaric, adipic, maleic, malic, pimelic, suberic, azelaic, sebacic, phthalic, isophtalic, and terephthalic acid. Non-exclusive examples of tri-carboxylic acids include citric, isocitric, aconitic, propane-1,2,3-tricarboxylic, and trimesic acid.

[2] = type: physicochemical; remark: listed apart in the source
Experimental: as §1
The addition of the weak acid in the formulation lowered the apparent pH of the formulation to about 6.5 to 7.5, however, fipronil degraded initially by about 5-6% followed by slower degradation to about 10-15% during an accelerated (70°) kinetic study. Strong acids (pka≦2) were added to the formulation to both lower apparent pH to about 2.5 to about 3.5 and to protonate demiditraz to prevent it from potentially acting as a nucleophile against fipronil. Non-exclusive examples of strong acids include inorganic acids (e.g., HCl, HBr, HI, HF, nitric acid, phosphoric acid, boric acid, sulfuric acid, and the like). Other strong acids include sulfonic acid and sulfonic acid derivatives thereof. Non-exclusive examples of sulfonic acid derivatives include methane-, ethane-, p-toluenesulfonic (p-TSA), and dodecylbenzenesulfonic acid. The use of a strong acid, e.g., p-TSA, increased fipronil stability, however, degradation was still about 5% after 12 weeks at 50° C.
The initial instability of fipronil was reduced to about ≦1% during an accelerated (70° C.) 1-week stability study for DPGMME with a strong acid and for NMP with a strong or weak acid.

[3] = pKa of demiditraz; type: physicochemical; settings: weak base
Experimental: as §1

## N#Cc1nn(-c2c(Cl)cc(C(F)(F)F)cc2Cl)c(N)c1[S+]([O-])C(F)(F)F (centres unmarked) [fipronil]
[1]
  pH levels at which fipronil degrades rapidly: above 7.5
[2]
  Fipronil initial degradation: 5-6%
  Fipronil slower degradation following the initial one: 10-15%
  Fipronil stability when formulated with demiditraz: unstable
[2]; 1 week
  Fipronil degradation: 3-6%
  Initial instability of fipronil: ≤ 1%
[2]; 12 weeks
  Fipronil degradation: about 5%

## Cc1cccc([C@H](C)c2ncc[nH]2)c1C [Demiditraz, demiditraz]
[3]
  pKa: 7.2
